Measured values reported in patent publication US11352368B2, “Salt of fused ring pyrimidine compound, crystal form thereof and preparation method therefor and use thereof” (GUANGZHOU MAXINOVEL PHARMACEUTICALS CO., LTD., priority 2018, dated 2022).

Assays:
[1] = Solubility test of the salts in pure water (Example 6); type: physicochemical; settings: room temperature, balancing about 20 hours, HPLC
Description: 2.0 mg of sample was precisely weighed into a liquid phase vial, 1.0 mL of purified water was added, the vial was subjected to ultrasonic treatment for about 30 seconds to disperse the samples evenly, then the vial was placed on a Labquaker rotator, and slowly rotated at room temperature for balancing. After balancing for about 20 hours, each vial was removed, and the solution was filtered with 0.45 μm nylon filter membrane. The filtrate was diluted by DMSO or not diluted and then detected by HPLC. At the same time, two parts of fused ring pyrimidine compounds were weighed and dissolved in DMSO to make standard solutions with concentration of 250 μg/mL and 500 μg/mL, respectively. The standard solutions were subjected to the HPLC detection. The sample concentration vs the peak area of HPLC principal component was used for make a standard curve, and the solubility of each sample in pure water was calculated by a external standard method.

[2] = molecular target: T1, FLT3 (Homo sapiens, UniProt P36888); settings: cited from earlier work
T1 sequence (P36888 27-993): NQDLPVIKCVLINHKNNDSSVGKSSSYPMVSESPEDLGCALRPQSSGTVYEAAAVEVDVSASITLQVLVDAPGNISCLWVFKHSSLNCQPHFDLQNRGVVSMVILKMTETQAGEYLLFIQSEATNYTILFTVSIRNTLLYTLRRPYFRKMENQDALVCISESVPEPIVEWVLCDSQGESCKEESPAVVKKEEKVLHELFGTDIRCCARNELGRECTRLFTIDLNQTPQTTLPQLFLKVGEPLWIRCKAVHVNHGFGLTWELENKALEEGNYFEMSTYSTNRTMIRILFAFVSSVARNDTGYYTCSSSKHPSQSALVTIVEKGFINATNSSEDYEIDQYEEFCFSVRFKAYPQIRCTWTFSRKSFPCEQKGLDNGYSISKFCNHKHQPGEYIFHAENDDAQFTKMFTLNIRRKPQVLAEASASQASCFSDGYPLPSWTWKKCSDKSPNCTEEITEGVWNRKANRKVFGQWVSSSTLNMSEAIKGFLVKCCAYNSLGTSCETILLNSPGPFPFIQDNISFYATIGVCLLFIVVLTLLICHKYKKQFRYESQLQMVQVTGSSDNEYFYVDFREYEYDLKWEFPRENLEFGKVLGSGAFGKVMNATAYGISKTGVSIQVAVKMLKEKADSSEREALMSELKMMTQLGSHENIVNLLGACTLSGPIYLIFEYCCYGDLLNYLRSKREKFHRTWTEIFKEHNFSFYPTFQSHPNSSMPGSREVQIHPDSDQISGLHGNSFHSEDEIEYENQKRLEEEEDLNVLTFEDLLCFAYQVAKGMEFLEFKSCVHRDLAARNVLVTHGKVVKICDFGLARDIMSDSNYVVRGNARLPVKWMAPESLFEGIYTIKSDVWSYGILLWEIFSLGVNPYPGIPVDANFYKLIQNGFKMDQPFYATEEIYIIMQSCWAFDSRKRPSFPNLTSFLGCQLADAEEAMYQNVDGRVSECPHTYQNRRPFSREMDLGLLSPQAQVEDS

[3] = Stability test (total impurities, 20 days); type: physicochemical
Description: The crystal form A of the fumarate of fused ring pyrimidine compound as shown in formula 2, the crystal form B of the adipate of fused ring pyrimidine compound as shown in formula 3 and the fused ring pyrimidine compound as shown in formula 1 were subjected to tests at a high temperature of 60° C., 25° C./60% RH, 40° C./75% RH and highlight irradiation (4500 lx±500 lx), the test time was 20 days, the sample bottles were placed under different test conditions, and samples were taken at 0 and 20 days to detect the total amount of impurities, and the test results were shown in Table 8 below.

[4] = tested on: JAK; settings: cited from earlier work
[5] = Pharmacokinetic experiment, single intragastric dose in rats; type: in vivo, SD rats; settings: single dose 10 mg/kg, 0.5% MC and 0.5% Tween80 in water
Description: 1) Preparation of animals 9 healthy male SD rats, each with a body weight of 220-230 g, were taken, fed with standard formulated granulated feed for rats at fixed times every day, and fasted for 12 hours before the experiment, and feeding was resumed after 4 hours of administration. Rats were free to drink water before, after and during the experiment. 9 rats were randomly divided into 3 groups.
2) Formulation of drugs: The fused ring pyrimidine compound as shown in formula 1, the crystal form A of the fumarate of fused ring pyrimidine compound as shown in formula 2 and the crystal form B of the adipate of fused ring pyrimidine compound as shown in formula 3 were accurately weighed, and were formulated into a 1 mg/mL solution in water (Wahaha/111830) with 0.5% MC (Fluka/BCBK3534K) and 0.5% Tween80 (TCl/V4FSC), respectively.
3) Intragastric administration with single dose (10 mg/kg): in the first group, rats were intragastrically administered with a solution of the fused ring pyrimidine compound as shown in formula 1, in the second group, rats were intragastrically administered with a solution of the crystal form A of the fumarate of fused ring pyrimidine compound as shown in formula 2, and in the third group, rats were intragastrically administered with a solution of the crystal form B of the adipate of fused ring pyrimidine compound as shown in formula 3.
4) Collection of blood samples: About 150 μL of blood was taken from the fundus venous plexus before administration and 0.083, 0.25, 0.5, 1, 2, 4, 8 and 24 hours after administration from each rat in the three groups, and anticoagulated with K2EDTA, plasma was separated by centrifugation and the supernatant was collected for LC-MS analysis.

[6] = Solubility test of crystal form A and crystal form B in a medium (Example 12); type: physicochemical; settings: for Solubility (calculated by free base of the fused ring pyrimidine compound): in mg/mL (unit assumed)
Excerpt: Example 12 Solubility Test of the Crystal Form A of the Fumarate of Fused Ring Pyrimidine Compound as Shown in Formula 2 and the Crystal Form B of the Adipate of Fused Ring Pyrimidine Compound as Shown in Formula 3 in a Medium

[7] = tested on: FGFR; settings: cited from earlier work
[8] = tested on: Src kinase; settings: cited from earlier work
[9] = medium intestinal fluid in simulated fed state (FeSSIF)
[10] = medium pH 4 (50 mM phosphate buffer)
[11] = medium pH 6 (50 mM phosphate buffer)

Q: Which saturated solubility [1] does the source give for `COc1cc(F)ccc1-c1c(C)sc2cnc(Nc3cnn(C4CCNCC4)c3)nc12` [The fused ring pyrimidine compound as shown in formula 1] [N-[7-(4-fluoro-2-methoxyphenyl)-6-methylthieno[3,2-d]pyrimidin-2-yl]-1-(piperidin-4-yl)-1H-pyrazol-4-amine] here?
A: Its saturated solubility is <1 µg/mL.

Q: And the “inhibitory effect on FLT3” value [2]?
A: Its value is “good inhibitory effect”.

Q: And the Impurity content ([3]; Day 0)?
A: Its Impurity content is 1.44%.

Q: What about the Impurity content ([3]; Day 20, 25° C/60% RH) of the same compound?
A: Its Impurity content is 1.46%.

Q: What about the Impurity content ([3]; Day 20, 40° C/75% RH) of the same compound?
A: Its Impurity content is 1.49%.

Q: What about the Impurity content ([3]; Day 20, 60° C) of the same compound?
A: The Impurity content was 1.44%.

Q: What about the Impurity content ([3]; Day 20, Light (4500 lx±500 lx)) of the same compound?
A: Its Impurity content is 2.06%.

Q: What about the “chemical stability in the condition of high temperature and high humidity” value ([3]; high temperature and high humidity, 20 days) of the same compound?
A: The value was “good chemical stability”.

Q: And the “inhibitory effect on JAK” value [4]?
A: The value was “good inhibitory effect”.

Q: What about the “Blood drug concentration (AUC)” value [5] of the same compound?
A: Its value is 57.7 ng·h/mL.

Q: And the “pH value of sample solution for solubility” value (“pH value of sample solution” for short) ([6]; medium Purified water)?
A: The value was 8.29.

Q: And the “Solubility (calculated by free base of the fused ring pyrimidine compound)” value ([6]; medium Purified water)?
A: Its value is <0.001.

Q: What about the “pH value of sample solution” value [6, 9] of the same compound?
A: The value was 5.27.

Q: What about the “Solubility (calculated by free base of the fused ring pyrimidine compound)” value [6, 9] of the same compound?
A: The value was 1.469.

Q: What about the “pH value of sample solution” value [6, 10] of the same compound?
A: Its value is 5.67.

Q: What about the “Solubility (calculated by free base of the fused ring pyrimidine compound)” value [6, 10] of the same compound?
A: Its value is 0.054.

Q: And the “pH value of sample solution” value [6, 11]?
A: The value was 6.29.

Q: What about the “Solubility (calculated by free base of the fused ring pyrimidine compound)” value [6, 11] of the same compound?
A: The value was 0.025.

Q: And the “inhibitory effect on FGFR” value [7]?
A: The value was “good inhibitory effect”.

Q: What about the “inhibitory effect on Src kinase” value [8] of the same compound?
A: The value was “good inhibitory effect”.
